Patent US9732091B2, “Tryptophanol-derived oxazoloisoindolinones: small-molecule P53 activators” (UNIVERSIDADE DO PORTO, priority 2013, dated 2017)
Entries after “also recorded” stand apart in the source; their conditions may differ.

Columns and labels:
human lymphocytes = experiment: cytokinesis-block micronucleus assay; assay type: cell-based
Description: Concerning the genotoxicity assays, three concentrations (15.5, 7.25 and 1.55 μM) of SLMP53-1 were tested, in vitro, for potential genotoxicity to human lymphocytes. For that purpose, the cytokinesis-block micronucleus assay (an assay routinely used in mutagen/carcinogen screening programs) was used, which measures the ability of genotoxic agents to induce both chromosomal damage (clastogenic) and/or spindle dysfunction (aneugenic) effects.

mutant p53 R175H = target: T1, mutant p53 R175H (Homo sapiens, UniProt P04637, R175H); experiment: reactivation of mutant p53 in yeast (growth, CFU), R175H; assay type: cell-based; settings: 10 μM; yeast expressing R175H; 44 hours
T1 construct: expressed in transfected cells
Description: (§1) FIG. 6 illustrates that SLMP53-1 reactivates mutant p53s R273H, R175H and R280K in yeast. Yeast cells expressing R273H, R280K, Y220C or R175H were incubated in selective medium with 10 μM of SLMP53-1, 10 μM of CP-31398 (for R273H), 10 μM of PRIMA-1 (for R175H and R280K), 50 μM of PhiKan 083 (for Y220C) or DMSO only, for 44 hours. CP-31398, PRIMA-1 and PhiKan 083 were used as positive controls. Results are plotted setting as 100% growth the number of CFU obtained in the presence of DMSO only.
(§2) It is also shown that SLMP53-1 can reactivate some mutant p53 forms, particularly R273H, R280K and R175H (FIG. 6).

HCT116 p53^+/+ tumors = experiment: xenograft mouse model, HCT116 p53^+/+ tumors; assay type: in vivo, BALB/c mice; settings: four intraperitoneal injections of 50 mg/kg, vs vehicle, preliminary
Description: FIG. 10 illustrates the antitumor activity of SLMP53-1 in vivo. BALB/c mice, 4-6 weeks old, were implanted subcutaneous xenografts using 1.5×10^6 HCT116 p53^+/+ or HCT116 p53^−/− cells. The treatment was initiated when palpable tumors were established (14 days after the cells were injected), and consisted in 4 intraperitoneal injections (2× per week) of vehicle (control) or 50 mg/kg of SLMP53-1. Xenografts were measured during 24 days. Relative tumor volumes were plotted for control and treated groups by dividing the average tumor volume for each data point by average starting tumor volume.
Currently, the toxicity and antitumor activity of SLMP53-1 are under study in vivo using xenograft mouse models. […] Because p53-null tumors were not suppressed, it was confirmed that SLMP53-1 inhibited the tumor growth in a wt p53-dependent manner.

HCT116 p53^+/+ cells = experiment: sensitization to etoposide and doxorubicin, SRB assay, HCT116 p53^+/+; assay type: cell-based, human
Description: FIG. 5 illustrates that SLMP53-1 sensitizes colon carcinoma tumor cells with wt p53 (HCT116 p53^+/+) to the effects of etoposide and doxorubicin. HCT116 p53^+/+ cells were treated for 48 hours with increasing concentrations of etoposide (0.38 to 3.00 μM) or doxorubicin (9.38 to 75.0 nM) in the presence of a very low concentration (between GI5 to GI10; 4 μM) of SLMP53-1 or DMSO only. The effect of the compounds on cell growth was analyzed following 48 hours incubation, using the sulforhodamine B (SRB) assay. Results are mean±SEM of three to four independent experiments.
It was also investigated if SLMP53-1 increased the sensitivity of HCT116 p53^+/+ cells to the effects of various concentrations of the conventional chemotherapeutic drugs, etoposide (0.38 to 3.00 μM) and doxorubicin (9.38 to 75 nM). For that, a low concentration of SLMP53-1 (approximately the GI5 to GI10 concentration; 4 μM; without significant anti-proliferative effect on tumor cells) was used.

[1] = tested on: MDA-MB-231 cells (mutant p53 R280K); experiment: sensitization to etoposide and doxorubicin, SRB assay, MDA-MB-231; assay type: cell-based, human
Description: FIG. 9 illustrates that SLMP53-1 sensitizes breast cancer MDA-MB-231 cells to the effects of etoposide and doxorubicin. The MDA-MB-231 tumor cells (with the mutant p53 R280K) were treated for 48 hours with increasing concentrations of etoposide ([…] to 6.00 μM) or doxorubicin (187.5 to 750.0 nM) in the presence of a very low concentration (between GI5 to GI10; 4 μM) of SLMP53-1 or with DMSO only. Effect of compounds on cell growth was analyzed following 48 hours incubation, using the sulforhodamine B (SRB) assay. Results are mean±SEM of three to four independent experiments.
It was also investigated if SLMP53-1 increased the sensitivity of MDA-MB-231 cells to the effects of various concentrations of etoposide (0.38 to 6.00 μM) and doxorubicin (187.5 to 750.0 nM). For that, a low concentration of SLMP53-1 (approximately the GI5 to GI10 concentration; 4 μM; without significant anti-proliferative effects on tumor cell lines) was used. […] Particularly, for 0.38 μM etoposide (for which an anti-proliferative effect is not observed), a 25% decrease of tumor cell growth was obtained in the presence of 4 μM of SLMP53-1.

HCT116 p53^+/+ = experiment: SRB growth inhibition assay in HCT116 p53^+/+ colon carcinoma cells; assay type: cell-based, human
Description: Tumor cells were plated at 5.0×10^3 cells/well in 96-well plates and incubated for 24 hours. Cells were then exposed to serial dilutions of SLMP53-1, CP-31398 or PRIMA-1 (from 1.85 to 150 μM). The effect of the compounds was analyzed following 48 hours incubation, using the sulforhodamine B (SRB) assay. The solvent DMSO corresponding to the maximum concentration used in these assays (0.025%) was included as control. The GI50 value, the concentration of compound that causes 50% growth inhibition, was calculated for the tested compounds. Results are the mean±S.E.M. of three independent experiments.

mutant p53 R280K = target: T2, mutant p53 R280K (Homo sapiens, UniProt P04637, R280K); experiment: reactivation of mutant p53 in yeast (growth, CFU), R280K; assay type: cell-based; settings: 10 μM; yeast expressing R280K; 44 hours
T2 construct: expressed in transfected cells
Description: as §1, §2

MDA-MB-231 cells = experiment: apoptosis by flow cytometry (FITC-Annexin V and propidium iodide), MDA-MB-231; assay type: cell-based, human; settings: GI50, 24 hours
Description: Apoptosis was analyzed by flow cytometry using FITC-Annexin V and propidium iodide. The effect of compounds was analyzed after 24 hours treatment using the concentration of GI50. Histograms represent one of two independent experiments; quantification of cells in apoptosis represents the mean±S.E.M. of two independent experiments.

[2] = HCT116 p53^+/+ vs HCT116 p53^−/−

**Q.** How did the “cytotoxic and genotoxic effects” value (human lymphocytes) turn out when C[C@]12OC[C@H](Cc3c[nH]c4ccccc34)N1C(=O)c1ccccc12 [SLMP53-1] was run?
**A.** no cytotoxic and genotoxic effects were observed

**Q.** And the “mutagenic potential (micronuclei frequency vs negative control)” value (human lymphocytes; 15.5, 7.25 and 1.55 μM, human lymphocytes, in vitro)?
**A.** does not possess mutagenic potential

**Q.** What about the yeast growth inhibition (mutant p53 R175H) of the same molecule?
**A.** significant growth inhibition

**Q.** And the tumor growth (HCT116 p53^+/+ tumors)?
**A.** considerably suppressed

**Q.** And the “decrease of tumor cell growth” value (HCT116 p53^+/+ cells; 9.38 nM doxorubicin in the presence of 4 μM of SLMP53-1, HCT116 p53^+/+)?
**A.** 15%

**Q.** And the etoposide/doxorubicin-induced growth inhibition (HCT116 p53^+/+ cells; 4 μM SLMP53-1, etoposide 0.75 and 3.00 μM, doxorubicin 9.38, 37.5 and 75 nM, 48 hours)?
**A.** increased

**Q.** And the “decrease of tumor cell growth” value ([1]; 0.38 μM etoposide in the presence of 4 μM of SLMP53-1)?
**A.** 25%

**Q.** And the etoposide/doxorubicin-induced growth inhibition ([1]; 4 μM SLMP53-1, three concentrations tested, 48 hours)?
**A.** increased

**Q.** And the “GI50 in HCT116 p53^+/+ cells lower than in HCT116 p53^−/− cells” value (HCT116 p53^+/+; [2])?
**A.** 2 fold

**Q.** And the “p53 dependence of anti-proliferative effect” value (HCT116 p53^+/+; [2])?
**A.** p53-dependent anti-proliferative effect

**Q.** And the GI50 (HCT116 p53^+/+; Homo sapiens, HCT-116, HCT116 p53^+/+, 48 hours incubation, SRB, mean±S.E.M.)?
**A.** 15.5 ± 1.6 µM

**Q.** And the yeast growth inhibition (mutant p53 R280K)?
**A.** significant growth inhibition

**Q.** And the apoptosis (MDA-MB-231 cells)?
**A.** induces late apoptosis; also recorded: apoptotic cell death
